Results published in the supplement of paper PMC10307832.

Experiments:
Assay in all cases: relative viability (nuclei count vs DMSO), 5 days (fraction); higher = more cells survive
[1] = compound: CN[C@@H]1C[C@H]2O[C@@](C)([C@@H]1OC)n1c3ccccc3c3c4c(c5c6ccccc6n2c5c31)C(=O)NC4 [Staurosporine] + CS(=O)(=O)CCNCc1ccc(-c2ccc3ncnc(Nc4ccc(OCc5cccc(F)c5)c(Cl)c4)c3c2)o1 [Lapatinib] (partner 2 µM)
Method in brief: (§1)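 Relative viability divides the nuclei count in treated wells by that in vehicle wells. Lung cancer cell lines were seeded in 1536-well plates, dosed by pin tool the next day, and fixed and stained after 5 days in one step with final 0.05% Triton X-100, 1% formaldehyde and 1 ug/ml Hoechst. Dosing was a single drug or a fixed anchor-drug dose plus five library-drug doses (not always all listed) in √10 steps, and values are medians of duplicate plates imaged at 4×.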

[2] = compound: O=c1[nH]cc(F)c(=O)[nH]1 [5-Fluorouracil] + C[C@]1(O)C[C@@H](c2nc(-c3ccc4ccc(-c5ccccc5)nc4c3)c3c(N)nccn32)C1 [Linsitinib] (partner 1 µM)
Method in brief: as §1

[3] = compound: CC1=C(CC(=O)O)c2cc(F)ccc2/C1=C\c1ccc([S+](C)[O-])cc1 [Sulindac] + CS(=O)(=O)N1CCN(Cc2cc3nc(-c4cccc5[nH]ncc45)nc(N4CCOCC4)c3s2)CC1 [Pictilisib] (partner 1 µM)
Method in brief: as §1

[4] = compound: O=c1[nH]cc(F)c(=O)[nH]1 [5-Fluorouracil] + CC1(C)CCC(c2ccc(Cl)cc2)=C(CN2CCN(c3ccc(C(=O)NS(=O)(=O)c4ccc(N[C@H](CCN5CCOCC5)CSc5ccccc5)c(S(=O)(=O)C(F)(F)F)c4)cc3)CC2)C1 [Navitoclax] (partner 0.5 µM)
Method in brief: as §1

Cell Line | relative viability ([1]; first compound 0.005 µM) | relative viability ([1]; first compound 0.01581 µM) | relative viability ([1]; first compound 0.05 µM) | relative viability ([1]; first compound 0.1581 µM) | relative viability ([1]; first compound 0.5 µM) | relative viability ([2]; first compound 0.02 µM) | relative viability ([2]; first compound 0.2 µM) | relative viability ([2]; first compound 0.6325 µM) | relative viability ([2]; first compound 2 µM) | relative viability ([3]; first compound 0.08 µM) | relative viability ([3]; first compound 0.253 µM) | relative viability ([3]; first compound 0.8 µM) | relative viability ([3]; first compound 8 µM) | relative viability ([4]; first compound 0.02 µM) | relative viability ([4]; first compound 0.2 µM) | relative viability ([4]; first compound 0.6325 µM) | relative viability ([4]; first compound 2 µM) | relative viability ([3]; first compound 2.53 µM)
LCLC-97TM1 | 0.864 | 0.168 | 0.285 | 0.174 | 0.381 | 0.175 | 0.193 | 0.153 | 0.144 | 0.198 | 0.214 | 0.18 | 0.187 | 0.463 | 0.525 | 0.222 | 0.212 | –
BEN | 0.656 | 0.449 | 0.381 | 0.198 | 0.207 | 0.813 | 0.754 | 0.641 | 0.646 | 0.599 | 0.56 | 0.443 | 0.667 | 0.0616 | 0.276 | 0.0857 | 0.0672 | 0.673
NCI-H2085 | 0.65 | 0.391 | 0.463 | 0.351 | 0.243 | 0.894 | 0.963 | 0.932 | 0.587 | 0.459 | 0.415 | 0.433 | 0.447 | 0.972 | 1.14 | 1.08 | 0.875 | 0.377
LC-2-ad | 0.957 | 0.127 | 0.47 | 0.0776 | 0.0569 | 0.868 | 0.798 | 0.463 | 0.299 | 0.63 | 0.533 | 0.34 | 0.445 | 0.445 | 0.441 | 0.296 | 0.186 | 0.416
NCI-H1792 | 0.992 | 0.814 | 0.503 | 0.199 | 0.185 | 0.554 | 0.484 | 0.14 | 0.0794 | 0.286 | 0.294 | – | 0.313 | 0.64 | 0.591 | 0.131 | 0.118 | 0.231
EPLC-272H | 0.787 | 0.194 | 0.513 | 0.175 | 0.149 | 1.1 | 0.9 | – | 0.305 | 0.293 | – | 0.252 | 0.361 | 1.18 | 0.79 | 0.372 | 0.259 | 0.284
NCI-H1437 | 0.698 | 0.346 | 0.453 | 0.152 | 0.0978 | – | 0.26 | 0.169 | 0.119 | 0.417 | 0.504 | 0.405 | 0.489 | – | 0.243 | 0.203 | 0.139 | 0.386
EKVX | 0.152 | 0.135 | 0.162 | 0.156 | 0.1 | 0.891 | 0.282 | 0.153 | 0.142 | 0.409 | 0.487 | 0.381 | 0.516 | 0.847 | 0.283 | 0.142 | 0.124 | 0.475
NCI-H1651 | 0.708 | 0.413 | 0.356 | 0.107 | 0.0625 | 0.973 | 0.859 | 0.602 | 0.468 | 0.751 | 0.672 | 0.416 | 0.599 | 1.09 | 0.9 | 0.574 | 0.42 | 0.621
HCC-15 | 0.892 | – | 0.595 | 0.365 | 0.151 | 0.894 | 0.827 | 0.584 | 0.308 | 0.861 | 0.817 | 0.526 | 0.814 | 0.761 | 0.77 | 0.469 | 0.298 | 0.735
NCI-H2347 | 0.457 | 0.348 | 0.352 | 0.319 | 0.407 | 0.997 | 0.748 | 0.467 | 0.411 | 0.298 | 0.637 | 0.503 | 0.509 | 0.638 | 0.65 | 0.369 | 0.354 | 0.6
NCI-H1915 | 1.05 | – | 0.584 | 0.272 | 0.192 | 1.06 | 1.1 | 1.03 | 0.803 | 0.975 | 0.927 | 0.761 | 1.05 | 0.714 | 0.8 | 0.779 | 0.668 | 0.887
NCI-H596 | 1.08 | 0.749 | 0.419 | 0.181 | 0.157 | 1.02 | 0.834 | 0.689 | 0.567 | 0.391 | 0.378 | 0.413 | 0.411 | 0.804 | 0.753 | 0.566 | 0.347 | 0.37
HCC-366 | 1.22 | – | 0.278 | 0.0407 | 0.0187 | 0.673 | 0.82 | 0.254 | 0.0796 | 0.149 | 0.13 | – | 0.0889 | 1.19 | 0.992 | 0.545 | 0.125 | 0.0966
NCI-H2087 | 0.755 | 0.548 | 0.427 | 0.206 | 0.105 | 0.91 | 0.865 | 0.657 | – | 0.951 | 0.783 | 0.622 | 0.984 | 0.928 | 0.917 | 0.573 | 0.557 | 0.916
RERF-LC-KJ | 0.878 | 0.821 | 0.734 | 0.424 | 0.245 | 0.832 | 0.775 | 0.792 | 0.764 | 0.57 | 0.626 | – | 0.579 | 0.834 | 0.971 | 1.01 | 0.554 | 0.473
HOP-62 | 1.27 | 0.293 | 0.103 | 0.0855 | 0.0849 | 1.11 | 1.03 | 0.86 | 0.765 | 1.01 | 0.864 | 0.831 | 0.978 | 1.09 | 1.13 | 1.01 | 0.805 | 0.758
NCI-H2126 | 0.805 | 0.571 | 0.505 | 0.336 | 0.356 | 0.64 | 0.378 | 0.341 | 0.285 | 0.46 | 0.498 | 0.462 | 0.479 | 0.827 | 0.367 | 0.303 | 0.298 | 0.497
